# According to the supplement of paper PMC10883282:
# Legend:
# Test in all cases: standardised AUC of viability dose-response curve (72 h) (fraction (0-1)); higher = less growth inhibition (more resistant)
# [1] = system: SK-ES-1
# In short: (§1)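 In 384-well plates, sarcoma cell lines were exposed for 72 h, in triplicate, to 2.5 µl of a 1:3 compound dilution series whose compound-plate concentrations ran from 10 mM to 0.0002 mM. Four-parameter log-logistic models were fitted per drug and cell line to ATPLite viability, scaled 1 (full) to 0 (none). From these fits, a modified drexplorer computeAUC gave the standardised area under the curve in log-dose space. Here 1 marks no response and 0 full response.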
# [2] = system: SW684
# In short: as §1
# [3] = system: HT1080
# In short: as §1
# [4] = system: KHOS-240S
# In short: as §1
# [5] = system: HS729
# In short: as §1
# [6] = system: G401
# In short: as §1
# [7] = system: SYO-1
# In short: as §1
# [8] = system: A204
# In short: as §1
# [9] = system: SW1353
# In short: as §1
# [10] = system: VA-ES-BJ
# In short: as §1
# [11] = system: RD
# In short: as §1
# [12] = system: KHOS-NP
# In short: as §1
# [13] = system: RD-ES
# In short: as §1
# [14] = system: SW982
# In short: as §1
# [15] = system: MES-SA
# In short: as §1
# [16] = system: SK-LMS-1
# In short: as §1
# [17] = system: SW872
# In short: as §1
compound,measurement,setting,value
C=CC(=O)N1CCC([C@@H]2CCNc3c(C(N)=O)c(-c4ccc(Oc5ccccc5)cc4)nn32)CC1 [ZANUBRUTINIB],standardised AUC,[1],0.977
same,standardised AUC,[2],0.97
same,standardised AUC,[3],0.987
same,standardised AUC,[4],0.976
same,standardised AUC,[5],0.964
same,standardised AUC,[6],0.977
same,standardised AUC,[7],0.974
same,standardised AUC,[8],0.957
same,standardised AUC,[9],0.934
same,standardised AUC,[10],0.973
same,standardised AUC,[11],0.966
same,standardised AUC,[12],1
same,standardised AUC,[13],0.974
same,standardised AUC,[14],0.941
same,standardised AUC,[15],0.981
same,standardised AUC,[16],1
same,standardised AUC,[17],0.941
C=CC(=O)Nc1cccc(Oc2nc(Nc3ccc(N4CCN(C)CC4)cc3)nc3ccsc23)c1 [OLMUTINIB],standardised AUC,[1],0.936
same,standardised AUC,[2],0.899
same,standardised AUC,[3],0.951
same,standardised AUC,[4],0.954
same,standardised AUC,[5],0.931
same,standardised AUC,[6],0.964
same,standardised AUC,[7],0.923
same,standardised AUC,[8],0.98
same,standardised AUC,[9],0.918
same,standardised AUC,[10],0.939
same,standardised AUC,[11],0.951
same,standardised AUC,[12],0.993
same,standardised AUC,[13],0.982
same,standardised AUC,[14],0.907
same,standardised AUC,[15],0.945
same,standardised AUC,[16],0.927
same,standardised AUC,[17],0.964
CNC(=O)c1cc(Oc2ccc(NC(=O)Nc3ccc(Cl)c(C(F)(F)F)c3)c(F)c2)ccn1 [REGORAFENIB],standardised AUC,[1],0.943
same,standardised AUC,[2],0.992
same,standardised AUC,[3],0.96
same,standardised AUC,[4],0.936
same,standardised AUC,[5],0.873
same,standardised AUC,[6],0.874
same,standardised AUC,[7],0.816
same,standardised AUC,[8],0.768
same,standardised AUC,[9],0.958
same,standardised AUC,[10],0.977
same,standardised AUC,[11],0.91
same,standardised AUC,[12],0.856
same,standardised AUC,[13],0.974
same,standardised AUC,[14],0.96
same,standardised AUC,[15],0.934
same,standardised AUC,[16],0.904
same,standardised AUC,[17],0.93
Cc1cc(C)c(/C=C2\C(=O)Nc3ccccc32)[nH]1 [SEMAXANIB],standardised AUC,[1],0.978
same,standardised AUC,[2],0.939
same,standardised AUC,[3],0.983
same,standardised AUC,[4],0.939
same,standardised AUC,[5],0.938
same,standardised AUC,[6],0.983
same,standardised AUC,[7],0.857
same,standardised AUC,[8],0.888
same,standardised AUC,[9],0.979
same,standardised AUC,[10],0.947
same,standardised AUC,[11],0.993
same,standardised AUC,[12],0.98
same,standardised AUC,[13],0.968
same,standardised AUC,[14],0.936
same,standardised AUC,[15],0.976
same,standardised AUC,[16],0.954
same,standardised AUC,[17],0.993
CN[C@@H]1C[C@H]2O[C@@](C)([C@@H]1OC)n1c3ccccc3c3c4c(c5c6ccccc6n2c5c31)C(=O)NC4 [STAUROSPORINE],standardised AUC,[1],0.398
same,standardised AUC,[2],0.427
same,standardised AUC,[3],0.313
same,standardised AUC,[4],0.284
same,standardised AUC,[5],0.409
same,standardised AUC,[6],0.331
same,standardised AUC,[7],0.288
same,standardised AUC,[8],0.309
same,standardised AUC,[9],0.294
same,standardised AUC,[10],0.346
same,standardised AUC,[11],0.343
same,standardised AUC,[12],0.369
same,standardised AUC,[13],0.435
same,standardised AUC,[14],0.25
same,standardised AUC,[15],0.435
same,standardised AUC,[16],0.376
same,standardised AUC,[17],0.337
C[C@]1(O)C[C@@H](c2nc(-c3ccc4ccc(-c5ccccc5)nc4c3)c3c(N)nccn32)C1 [LINSITINIB],standardised AUC,[1],0.708
same,standardised AUC,[2],0.965
same,standardised AUC,[3],0.954
same,standardised AUC,[4],0.915
same,standardised AUC,[5],0.776
same,standardised AUC,[6],0.817
same,standardised AUC,[7],0.876
same,standardised AUC,[8],0.922
same,standardised AUC,[9],0.979
same,standardised AUC,[10],0.936
same,standardised AUC,[11],0.836
same,standardised AUC,[12],0.973
same,standardised AUC,[13],0.73
same,standardised AUC,[14],0.9
same,standardised AUC,[15],0.952
same,standardised AUC,[16],0.973
same,standardised AUC,[17],0.936
Cn1cc(-c2cc3c(N4CCN(c5ncc([C@@](C)(N)c6ccc(F)cc6)cn5)CC4)ncnn3c2)cn1 [AVAPRITINIB],standardised AUC,[1],0.953
same,standardised AUC,[2],0.977
same,standardised AUC,[3],0.971
same,standardised AUC,[4],0.927
same,standardised AUC,[5],0.941
same,standardised AUC,[6],0.913
same,standardised AUC,[7],0.745
same,standardised AUC,[8],0.727
same,standardised AUC,[9],0.927
same,standardised AUC,[10],0.972
same,standardised AUC,[11],0.978
same,standardised AUC,[12],0.917
same,standardised AUC,[13],0.956
same,standardised AUC,[14],0.948
same,standardised AUC,[15],0.937
same,standardised AUC,[16],0.954
same,standardised AUC,[17],0.946
C[C@@H](c1ccc2nccn2c1)n1nnc2ncc(-c3cnn(C)c3)nc21 [VOLITINIB],standardised AUC,[1],0.996
same,standardised AUC,[2],0.986
same,standardised AUC,[3],0.982
same,standardised AUC,[4],1
same,standardised AUC,[5],0.998
same,standardised AUC,[6],0.992
same,standardised AUC,[7],0.998
same,standardised AUC,[8],0.974
same,standardised AUC,[9],0.991
same,standardised AUC,[10],0.883
same,standardised AUC,[11],0.988
same,standardised AUC,[12],0.981
same,standardised AUC,[13],0.993
same,standardised AUC,[14],0.993
same,standardised AUC,[15],0.994
same,standardised AUC,[16],0.725
same,standardised AUC,[17],0.992
Nc1cc(C(F)(F)F)c(-c2cc(N3CCOCC3)nc(N3CCOCC3)n2)cn1 [BUPARLISIB],standardised AUC,[1],0.742
same,standardised AUC,[2],0.823
same,standardised AUC,[3],0.862
same,standardised AUC,[4],0.829
same,standardised AUC,[5],0.815
same,standardised AUC,[6],0.823
same,standardised AUC,[7],0.791
same,standardised AUC,[8],0.754
same,standardised AUC,[9],0.85
same,standardised AUC,[10],0.762
same,standardised AUC,[11],0.785
same,standardised AUC,[12],0.887
same,standardised AUC,[13],0.769
same,standardised AUC,[14],0.79
same,standardised AUC,[15],0.753
same,standardised AUC,[16],0.75
same,standardised AUC,[17],0.809
COc1c(OCCCN2CCOCC2)ccc2c1N=C(NC(=O)c1cnc(N)nc1)N1CCN=C21 [COPANLISIB],standardised AUC,[1],0.483
same,standardised AUC,[2],0.569
same,standardised AUC,[3],0.83
same,standardised AUC,[4],0.693
same,standardised AUC,[5],0.583
same,standardised AUC,[6],0.654
same,standardised AUC,[7],0.655
same,standardised AUC,[8],0.516
same,standardised AUC,[9],0.675
same,standardised AUC,[10],0.568
same,standardised AUC,[11],0.556
same,standardised AUC,[12],0.802
same,standardised AUC,[13],0.472
same,standardised AUC,[14],0.609
same,standardised AUC,[15],0.474
same,standardised AUC,[16],0.617
same,standardised AUC,[17],0.541
CCN1CCN(Cc2ccc(Nc3ncc(F)c(-c4cc(F)c5nc(C)n(C(C)C)c5c4)n3)nc2)CC1 [ABEMACICLIB],standardised AUC,[1],0.631
same,standardised AUC,[2],0.901
same,standardised AUC,[3],0.993
same,standardised AUC,[4],0.856
same,standardised AUC,[5],0.966
same,standardised AUC,[6],0.855
same,standardised AUC,[7],0.715
same,standardised AUC,[8],0.746
same,standardised AUC,[9],0.88
same,standardised AUC,[10],0.804
same,standardised AUC,[11],0.97
same,standardised AUC,[12],0.95
same,standardised AUC,[13],0.734
same,standardised AUC,[14],0.734
same,standardised AUC,[15],0.805
same,standardised AUC,[16],0.938
same,standardised AUC,[17],0.872
CC(C)NC(=O)C1CCC(n2c(NC(=O)c3ccc(F)cc3)nc3ccc(CN4CCC(C(C)(C)O)CC4)cc32)CC1 (stereo not given) [BELIZATINIB],standardised AUC,[1],0.749
same,standardised AUC,[2],0.925
same,standardised AUC,[3],0.952
same,standardised AUC,[4],0.844
same,standardised AUC,[5],0.838
same,standardised AUC,[6],0.829
same,standardised AUC,[7],0.827
same,standardised AUC,[8],0.922
same,standardised AUC,[9],0.897
same,standardised AUC,[10],0.835
same,standardised AUC,[11],0.788
same,standardised AUC,[12],0.973
same,standardised AUC,[13],0.791
same,standardised AUC,[14],0.762
same,standardised AUC,[15],0.901
same,standardised AUC,[16],0.926
same,standardised AUC,[17],0.82
O=C(Nc1cnn2ccc(N3CCC[C@@H]3c3cc(F)ccc3F)nc12)N1CC[C@H](O)C1 [LAROTRECTINIB],standardised AUC,[1],0.982
same,standardised AUC,[2],0.985
same,standardised AUC,[3],0.996
same,standardised AUC,[4],0.988
same,standardised AUC,[5],0.886
same,standardised AUC,[6],0.98
same,standardised AUC,[7],0.92
same,standardised AUC,[8],0.992
same,standardised AUC,[9],0.936
same,standardised AUC,[10],0.969
same,standardised AUC,[11],0.995
same,standardised AUC,[12],0.969
same,standardised AUC,[13],0.994
same,standardised AUC,[14],0.996
same,standardised AUC,[15],0.982
same,standardised AUC,[16],0.961
same,standardised AUC,[17],0.953
C[C@@H]1CCN(C(=O)CC#N)C[C@@H]1N(C)c1ncnc2[nH]ccc12 [TOFACITINIB],standardised AUC,[1],0.989
same,standardised AUC,[2],0.967
same,standardised AUC,[3],0.982
same,standardised AUC,[4],0.976
same,standardised AUC,[5],0.876
same,standardised AUC,[6],0.994
same,standardised AUC,[7],0.925
same,standardised AUC,[8],0.972
same,standardised AUC,[9],0.942
same,standardised AUC,[10],0.958
same,standardised AUC,[11],1
same,standardised AUC,[12],0.982
same,standardised AUC,[13],1
same,standardised AUC,[14],0.993
same,standardised AUC,[15],0.989
same,standardised AUC,[16],0.978
same,standardised AUC,[17],0.932
CCCS(=O)(=O)Nc1ccc(F)c(C(=O)c2c[nH]c3ncc(-c4ccc(Cl)cc4)cc23)c1F [VEMURAFENIB],standardised AUC,[1],0.959
same,standardised AUC,[2],0.97
same,standardised AUC,[3],0.983
same,standardised AUC,[4],0.979
same,standardised AUC,[5],0.978
same,standardised AUC,[6],0.992
same,standardised AUC,[7],0.978
same,standardised AUC,[8],0.977
same,standardised AUC,[9],0.946
same,standardised AUC,[10],0.983
same,standardised AUC,[11],0.978
same,standardised AUC,[12],0.983
same,standardised AUC,[13],0.989
same,standardised AUC,[14],0.949
same,standardised AUC,[15],0.956
same,standardised AUC,[16],0.93
same,standardised AUC,[17],0.802
